Data: patent US11352358B2, “FXR agonist” (XUANZHU BIOPHARMACEUTICAL CO., LTD., priority 2017, dated 2022)

What was measured:
BSEP mRNA in HepG2 cells = test: Relative expression of BSEP mRNA in HepG2 cells (qPCR), Experimental Example 1; assay type: cell-based, human; details: Table 1, 24 hrs, expression under 3 μM of PX-104 as 100%
Description: compounds of the present invention (for their chemical names and preparation methods, see the preparation example of each compound); compound PX-104 and compound 30-70 (for their structures, see the background of the invention, and for their preparation methods, see patent applications WO2011020615A1 and WO2012087519A1).
Cells were digested with pancreatin and collected, and the concentration of the cells was determined; according to the counting result, the cells were resuspended to a density of 7.5×10^5 cells/mL; 2 mL of the cell suspension was inoculated in each well of a 6-well cell culture plate; and the culture plate was placed in an incubator and cultured under the conditions of 37° C. and 5% CO2 for 24 hrs.
The to-be-tested compounds were diluted to 0.3 mM and 3 mM with DMSO; and 5 μL of each stock solution diluted in the previous step was added to 5 mL of medium individually. The concentrations of the obtained working solutions were 0.3 μM and 3 μM respectively. In the control group, medium was prepared by using equivoluminal DMSO instead of the stock solutions; the cell culture plate was taken out from the incubator; the medium was removed from the cell culture plate, and the working solutions and the control medium were added correspondingly; and the culture plate was then put back into the incubator and cultured under the conditions of 37° C. and 5% CO2 for 24 hrs.
after treatment for 24 hrs, the cell culture plate was taken out, and the medium was removed from the plate; the cells were rinsed three times with pre-cooled (4° C.) PBS; and 200 μL of pancreatin (preheated to 37° C.) was added to each well, and the plate was then gently shaken such that the pancreatin could evenly cover the plate bottom. The culture plate was then placed back into the incubator and incubated until the cells were separated from the plate bottom. 1 mL of medium was added to terminate digestion. The solution was gently pipetted and blown for several times with a pipettor, all the substances in each well were pipetted into a 1.5 mL Rnase-free centrifuge tube and centrifuged at 200×g for 5 mins; supernatants were removed to collect cell samples.
Cell lysis: Fresh RNA lysis buffer was prepared (wherein 10 μL of 2-mercaptoethanol was added to 1 mL of lysis buffer); 600 μL of lysis buffer was added to each cell sample; the cells were lysed completely by 1 to 2 mins of vigorous vortexing; the cell lysates were centrifuged at 12,000×g for 5 mins; and the supernatants were transferred to 1.5 mL Rnase-free centrifuge tubes.
Extraction and purification of RNA: An equal amount of 70% ethanol was added to each cell lysate; the centrifuge tubes were then shaken vigorously, and the buffer was mixed sufficiently, so that the particulate precipitates that might be formed after the addition of ethanol were dispersed as even as possible; and adsorption columns were put into collecting tubes, and the mixtures were transferred to the adsorption columns. 700 μL was transferred at most each time; and the solutions were centrifuged at 12,000×g under room temperature for 15 secs. The solutions in the collecting tubes were discarded, and the adsorption columns were put into the collecting tubes once again; and all the remaining mixtures were then transferred into the adsorption columns. 700 μL of eluent I was added to the adsorption column; and the solutions were centrifuged at 12,000×g under room temperature for 15 secs. The adsorption columns were put into new collecting tubes; 500 μL of eluent II was added to the adsorption column; and the solutions were centrifuged at 12,000×g under room temperature for 15 secs. […]

[1] = Liver microsome metabolism stability, human liver microsome; assay type: in vitro ADME; details: 0.5 mg protein/mL, test sample 1 μM, β-NADPH
Description: Test samples: the homemade compounds 1, 2, 4 and 5 of the present invention (for their chemical names and preparation methods, see the preparation example for each compound).
a mixed liver microsomes of SD rat and human both purchased from XenoTech, with batch Nos.: 1410271 (SD rat) and 1410013 (human) respectively, wherein the microsomal protein concentrations both were 20 mg mL^−1;
experimental promoter β-NADPH purchased from Roche (batch No.: 524F0231); and a phosphate buffer solution (pH 7.4) made in the lab.
An appropriate amount of the test sample powder was weighed accurately, and dissolved in an appropriate amount of dimethyl sulfoxide (DMSO) to a concentration of 1 mM; and the solution was then diluted by 20 times with methanol to yield a 50 μM working solution.
(1) According to the proportions in table 3 “Composition of the incubation system for liver microsome metabolism stability experiment” above, for each compound, 6 mL of PBS (100 mM), 0.6 mL of MgCl2 solution (20 mM) and 3.66 mL of H2O were made into a mixed solution 1 for the incubation system (not containing the microsomes, the test sample and β-NADPH).
(2) Liver microsomes (20 mg protein/mL) were taken from a refrigerator (−80° C.), and were placed on a thermostatic water bath oscillator (37° C.) and pre-incubated for 3 mins.
(3) For each compound, 1.88 mL of the mixed solution 1 for the incubation system was added with 55 μL of microsomes to obtain a mixed solution 2 for the incubation system (not containing the test sample and β-NADPH).
(4) Sample group (containing the microsomes and D-NADPH): 616 μL of mixed solution 2 for the incubation system was added with 14 μL of the test sample working solution (with a concentration of 50 μM), and with 70 μL of R-NADPH working solution (10 mM). The resulted solution was well mixed, and the resulted solution was then duplicated. The time points of sampling were at 0 min, 5th min, 10th min, 20th min, 30th min and 60th min.
(5) Control group (containing the microsomes, and water instead of D-NADPH): 264 μL of mixed solution 2 for the incubation system was added with 6 μL of the test sample working solution (50 μM), and with 30 μL of water. The resulted solution was well mixed, and the resulted solution was then duplicated. The time points of sampling were at 0 min and 60th min.
(6) 50 μL of sample was taken from an incubating sample tube at each predetermined time point, added to a terminating sample tube (containing 300 μL of cold terminator), and vortexed; and the reaction was terminated.
(7) after 10 mins of vortexing, the solution was centrifuged for 5 mins (12,000 rpm).
(8) 100 μL of supernatant was taken and added with 100 μL of water, and the mixture solution was thoroughly vortexed; and the solution was then analyzed by LC-MS/MS.
Percentages of residual contents were calculated according to the following formula.

Residual content (%) after 60 minutes of incubation [1]: 69%
SMILES: O=C(O)c1ccc2nc(N3C[C@@H]4C[C@H]3C[C@H]4OCc3c(-c4c(Cl)cccc4Cl)noc3C3CC3)sc2c1 [Compound 2-1, 2-((1S, 4S, 5R)-5-((5-cyclopropyl-3-(2,6-dichlorophenyl)isoxazol-4-yl)methoxy)-2-azabicyclo[2.2.1]heptan-2-yl)benzo[d]thiazole-6-carboxylic acid]
relative expression of BSEP mRNA in HepG2 cells (BSEP mRNA in HepG2 cells; 0.3 μM): 166%
relative expression of BSEP mRNA in HepG2 cells (BSEP mRNA in HepG2 cells; 3 μM): 185%
